The test system of test [1] is neutrophils. Nature of the test: Neutrophil intraluminal crawling following fMLP-mediated arrest in vivo (intravital microscopy, cremaster). The settings on record: compared to vehicle control; cremaster superfused with fMLP (10 μM), time-lapse microscopy 2 h; FIG. 9A. The source says: Following post-adhesion strengthening, neutrophils undertake Mac-1 (an integrin) dependent migratory activity on the vascular side of the vessel wall prior to transmigration ([…] and Zarbock 2013). Previous studies have highlighted the importance of this step for successful neutrophil recruitment (Phillipson et al. 2006). To investigate the effects of Btk inhibition on this step of the leukocyte recruitment cascade, intraluminal crawling following fMLP (N-formylmethionine-leucyl-phenylalanine)-mediated arrest in vivo was investigated. Using intravital microscopy, intravascular crawling of neutrophils was examined as described previously (Phillipson et al. 2006). Briefly, anti-Gr-1 antibody (clone RB6-8C5), labelled with Alexa Fluor 488 (Molecular Probes, Eugene, Oreg., USA), was injected via the cannulated carotid artery prior to the experiment. Following preparation and exteriorization, the cremaster was superfused with fMLP (10 μM) and time-lapse microscopy was performed for 2 h. The number of adherent cells was determined.

In test [2] the test system is neutrophils. Nature of the test: Neutrophil recruitment to the necrotic zone following sterile liver injury (heat injury). The test is classed as in vivo. The settings on record: 4 h after heat injury; spinning disc time-lapse microscopy; FIG. 9B.
The test system of test [3] is anti-GBM glomerulonephritis. Briefly: Mouse anti-GBM glomerulonephritis model. The settings on record: for kidney pathology: kidney histology after Study Day 10, relative to Dex 1 mg/kg QD. The test is classed as in vivo. How it is done: The mouse anti-GBM glomerulonephritis model involves antibody mediated autoimmunity, and the model is histologically and mechanistically similar to glomerulonephritis in humans. The model also includes kidney deposition of immune complexes (IC), targeting glomerular basement membrane. The efficacy of Compound (IB) (also referred to as PRN1008) relative to the corticosteroid dexamethasone (Dex) was tested in a mouse anti-GBM glomerulonephritis model according to the design shown in FIG. 1. Briefly, to induce glomerulonephritis, mice were pre-sensitized with sheep IgG/FCA (Study Day −5). Five days later (Study Day 0), the mice received anti-GBM sheep IgG. Treatment with vehicle, Compound (IB), or Dex with various dosage regimes (Compound (IB): 10 mg/kg, 20 mg/kg, or 40 mg/kg QD or 20 mg/kg BID; Dex: 1 mg/kg QD; Vehicle: QD or BID) began at Study Day −1, one day prior to injection with anti-GBM sheep IgG. Treatment continued until Study Day 10, for […] treatment in total. Urine protein analysis was conducted on Study Days −6, −4, −1, 1, 3, 6, 8, and 10. Following Study Day 10, mice serum BUN levels were analyzed as a measure of kidney function, and kidney histology was performed.

The test system of test [4] is BioMAP human primary cell-based co-culture systems. Nature of the test: BioMAP Diversity PLUS Panel. The settings on record: FIG. 8. The source says:
The BioMAP Diversity Plus Panel (FIG. 7) provides broad phenotypic profiles for pharmaceutically active agents. The panel uses 12 individual BioMAP human primary cell-based co-culture systems to predictively model drug effects on multiple tissues and disease states, providing 148 clinically relevant biomarker readouts. […] The LDLR gene is associated with the low-density lipoprotein receptor, which binds low-density lipoproteins that carry cholesterol in blood. […] Decreased MCP-1, sTNFα, eotaxin-3, ICAM-1, IL-la, and IL-8 and increased sPGE2 is associated with PRN1008's inflammation related activities. Decreased CD38, sIgG, sIL-17A, sIL-2, sIL-6, and M-CSF and increased CD69 are associated with PRN1008's immunomodulatory activities. Decreased MMP-9, uPA, and PAI-I is associated with PRN 1008's tissue remodeling activities. Decreased thrombomodulin (TM) and modulated tissue factor (TF) is associated with PRN1008's hemostasis-related activities. Thus, the BioMAP Diversity Plus Panel data for PRN1008 supports its anti-inflammatory and cytokine inhibition mechanisms.

Setting [5] is: inflammation related activities.

The structures appear in SMILES notation.

`CC(C)(C)C=C(C#N)C(=O)N1CCC[C@@H](n2nc(-c3ccc(Oc4ccccc4)cc3F)c3c(N)ncnc32)C1` [Compound (IA), (R)-2-(3-(4-amino-3-(2-fluoro-4-phenoxyphenyl)-1H-pyrazolo[3,4-d]pyrimidin-1-yl)piperidine-1-carbonyl)-4,4-dimethylpent-2-enenitrile]: the “migratory activity of neutrophils (arrested cells that crawled)” value in test [1] is “severely decreased”. Also, the “neutrophil recruitment following sterile liver injury” value in test [2] is recorded as “abolish neutrophil recruitment”.

In the case of `CC(C)(C=C(C#N)C(=O)N1CCC[C@@H](n2nc(-c3ccc(Oc4ccccc4)cc3F)c3c(N)ncnc32)C1)N1CCN(C2COC2)CC1` [Compound (IB), 2-[(3R)-3-[4-amino-3-(2-fluoro-4-phenoxy-phenyl)pyrazolo[3,4-d]pyrimidin-1-yl]piperidine-1-carbonyl]-4-methyl-4-[4-(oxetan-3-yl)piperazin-1-yl]pent-2-enenitrile], the “kidney weight gain (a surrogate for kidney inflammation)” value in test [3] (10, 20 or 40 mg/kg QD or 20 mg/kg BID, FIG. 5) is given as “dose dependent inhibition”. Also, in test [3] (10, 20 or 40 mg/kg QD or 20 mg/kg BID, Study Day -1 to 10, FIG. 2), the “serum blood urea nitrogen (BUN) levels” value is “dose dependent inhibition”. Also, the severe proteinuria entry in test [3] (10, 20 or 40 mg/kg QD or 20 mg/kg BID, Study Day -1 to 10, FIG. 3) is reported as “dose dependent inhibition”. In test [3] (FIG. 6), the kidney pathology entry is “reduced kidney pathology”. Besides, the kidney pathology entry in test [3] (FIG. 6, listed as PRN1008) was “significantly reduced kidney pathology, superior to a steroid comparator (Dex)”. The “proteinuria during the study” value in test [3] (urine protein analysis Study Days -6 to 10, FIG. 4) is listed as “reduced proteinuria”. In addition, in test [4] (BioMAP Profile), the LDLR entry was “decreased”; the “anti-proliferative activity, B cells” value is listed as “Anti-proliferative activities”; the “anti-proliferative activity, T cells” value is on record as “Anti-proliferative activities”; the “anti-proliferative activity, coronary artery smooth muscle cells” value is “Anti-proliferative activities”. For the same compound, in test [4] (BioMAP Profile), the “anti-proliferative activity, endothelial cells” value is reported as “Anti-proliferative activities” and the “anti-proliferative activity, fibroblasts” value is recorded as “Anti-proliferative activities”. Moreover, in test [4] (hemostasis-related activities), the “thrombomodulin (TM)” value is listed as “Decreased” and the “tissue factor (TF)” value was “modulated”. In test [4] (immunomodulatory activities), the CD38 result is “Decreased”, the CD69 entry is listed as “increased”, the M-CSF result is on record as “Decreased” and the sIL-2 result was “Decreased”. In test [4] (immunomodulatory activities), the sIL-6 entry is listed as “Decreased”, the sIL-17A entry is listed as “Decreased” and the sIgG entry is on record as “Decreased”. Also, in test [4] (setting [5]), the ICAM-1 entry is listed as “Decreased”, the IL-8 entry is given as “Decreased”, the IL-la result was “Decreased” and the MCP-1 result was “Decreased”. Further, in test [4] (setting [5]), the eotaxin-3 entry is on record as “Decreased”, the sPGE2 result is recorded as “increased” and the sTNFα result is given as “Decreased”. Besides, in test [4] (tissue remodeling activities), the MMP-9 result is recorded as “Decreased”, the PAI-I entry is given as “Decreased” and the uPA entry is recorded as “Decreased”.

For the origin of these results see patent US20230158031A1, “Treatment of Acute Respiratory Distress Syndrome and Other Disorders Involving Cytokine Storm Using BTK Inhibitors” (Principia Biopharma Inc., priority 2020, published 2023).
